Consider seven molecules from patent US12018059B2, “Human amylin analog polypeptides and methods of use” (Intarcia Therapeutics, Inc., priority 2018, dated 2024).

Starred links: 1 amine or outer side, 2 acyl side, 3 side chain; linkers in the order of their positions; H or OH if unused. Positions of bridges follow the written chain, without caps; N, C: chain ends. Residues, ends and D or L forms follow the SMILES beside them. Groups on a side chain read outwards from the residue. *: point of attachment. X3 = O=C(O)CCCCCCCCCCCCCCCCCCC(=O)N[C@@H](CCC(=O)NCOCCOCC(=O)NCOCCOCC(=O)*)C(=O)O; C20 diacid = O=C(O)CCCCCCCCCCCCCCCCCCC(=O)*; C18 diacid = O=C(O)CCCCCCCCCCCCCCCCC(=O)*; C17 diacid = O=C(O)CCCCCCCCCCCCCCCC(=O)*; C16 diacid = O=C(O)CCCCCCCCCCCCCCC(=O)*; γGlu = O=C(O)[C@H](CCC(=O)[*:2])N[*:1]

This series can be described thus: in vivo. To be noted: rat, iv, 0.033 mg/kg. More on the design: species or system Sprague-Dawley rats. Put shortly:
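Peptide plasma levels measured by UPLC-MS/MS (C18, product-ion monitoring) after protein precipitation or WCX SPE, calibrated in K2EDTA/protease-inhibitor rat plasma. Dosing in non-fasted male Sprague-Dawley rats (n=3): 0.033 mg/kg over 1 h by IV or SC infusion, or 0.3 mg/kg SC bolus; sampling up to 48 h.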

In the case of `CC[C@H](C)[C@H](NC(=O)[C@@H]1CCCN1C(=O)CNC(=O)[C@H](Cc1ccccc1)NC(=O)[C@H](CC(N)=O)NC(=O)[C@H](CC(N)=O)NC(=O)[C@H](CO)NC(=O)[C@H](CO)NC(=O)[C@H](CCCCN)NC(=O)[C@H](Cc1c[nH]cn1)NC(=O)[C@H](CCCCNC(=O)CCCCCCCCCCCCCCCCCCC(=O)O)NC(=O)[C@H](CCC(=O)O)NC(=O)[C@H](CC(N)=O)NC(=O)[C@H](C)NC(=O)[C@H](CC(C)C)NC(=O)[C@H](CCCNC(=N)N)NC(=O)[C@H](CCC(N)=O)NC(=O)[C@@H](NC(=O)[C@H](C)NC(=O)[C@@H]1CSSC[C@H](NC(=O)[C@@H](N)CO)C(=O)N[C@@H](CC(N)=O)C(=O)N[C@@H]([C@@H](C)O)C(=O)N[C@@H](CO)C(=O)N[C@@H]([C@@H](C)O)C(=O)N1)[C@@H](C)O)C(=O)N[C@@H](CC(C)C)C(=O)N1CCC[C@H]1C(=O)N1CCC[C@H]1C(=O)N[C@H](C(=O)N[C@@H](CCCCN)C(=O)N[C@H](C(=O)NCC(=O)N[C@@H](CO)C(=O)N[C@@H](CCC(=O)O)C(=O)N[C@H](C(=O)N[C@@H](Cc1ccc(O)cc1)C(N)=O)[C@@H](C)O)C(C)C)[C@@H](C)O` [Compound A75] (H-SCNTSTCATQRLANEK(C20 diacid)HKSSNNFGPILPPTKVGSETY-NH2; disulfide 2-7; N-terminus assumed), where the note is “male, Sprague-Dawley”, the distribution volume (Vd) was 0.121 L/kg, the clearance came out at 0.0781 mL/min/kg and the half-life is 1450 min.

Take `CC[C@H](C)[C@H](NC(=O)[C@@H]1CCCN1C(=O)CNC(=O)[C@H](Cc1ccccc1)NC(=O)[C@H](CC(N)=O)NC(=O)[C@H](CC(N)=O)NC(=O)[C@H](CO)NC(=O)[C@H](CO)NC(=O)[C@H](CCCCN)NC(=O)[C@H](Cc1c[nH]cn1)NC(=O)[C@H](CCCCNC(=O)CC[C@H](NC(=O)CCCCCCCCCCCCCCCCC(=O)O)C(=O)O)NC(=O)[C@H](CCC(=O)O)NC(=O)[C@H](CC(N)=O)NC(=O)[C@H](C)NC(=O)[C@H](CC(C)C)NC(=O)[C@H](CCCNC(=N)N)NC(=O)[C@H](CCC(N)=O)NC(=O)[C@@H](NC(=O)[C@H](C)NC(=O)[C@@H]1CSSC[C@H](NC(=O)[C@@H](N)CO)C(=O)N[C@@H](CC(N)=O)C(=O)N[C@@H]([C@@H](C)O)C(=O)N[C@@H](CO)C(=O)N[C@@H]([C@@H](C)O)C(=O)N1)[C@@H](C)O)C(=O)N[C@@H](CC(C)C)C(=O)N1CCC[C@H]1C(=O)N1CCC[C@H]1C(=O)N[C@H](C(=O)N[C@@H](CCCCN)C(=O)N[C@H](C(=O)NCC(=O)N[C@@H](CO)C(=O)N[C@@H](CCC(=O)O)C(=O)N[C@H](C(=O)N[C@@H](Cc1ccc(O)cc1)C(N)=O)[C@@H](C)O)C(C)C)[C@@H](C)O` [Compound A76] (H-SCNTSTCATQRLANEK([γGlu-C18 diacid])HKSSNNFGPILPPTKVGSETY-NH2; disulfide 2-7; N-terminus assumed): where the note is “male, Sprague-Dawley”, the Vd came out at 0.176 L/kg, the clearance came out at 0.105 mL/min/kg and the half-life is 1280 min.

Regarding `CC[C@H](C)[C@H](NC(=O)[C@@H]1CCCN1C(=O)CNC(=O)[C@H](Cc1ccccc1)NC(=O)[C@H](CC(N)=O)NC(=O)[C@H](CC(N)=O)NC(=O)[C@H](CO)NC(=O)[C@H](CO)NC(=O)[C@H](CCCCN)NC(=O)[C@H](Cc1c[nH]cn1)NC(=O)[C@H](CCCCNC(=O)CCCCCCCCCCCCCCCC(=O)O)NC(=O)[C@H](CCC(=O)O)NC(=O)[C@H](CC(N)=O)NC(=O)[C@H](C)NC(=O)[C@H](CC(C)C)NC(=O)[C@H](CCCNC(=N)N)NC(=O)[C@H](CCC(N)=O)NC(=O)[C@@H](NC(=O)[C@H](C)NC(=O)[C@@H]1CSSC[C@H](NC(=O)[C@@H](N)CO)C(=O)N[C@@H](CC(N)=O)C(=O)N[C@@H]([C@@H](C)O)C(=O)N[C@@H](CO)C(=O)N[C@@H]([C@@H](C)O)C(=O)N1)[C@@H](C)O)C(=O)N[C@@H](CC(C)C)C(=O)N1CCC[C@H]1C(=O)N1CCC[C@H]1C(=O)N[C@H](C(=O)N[C@@H](CCCCN)C(=O)N[C@H](C(=O)NCC(=O)N[C@@H](CO)C(=O)N[C@@H](CCC(=O)O)C(=O)N[C@H](C(=O)N[C@@H](Cc1ccc(O)cc1)C(N)=O)[C@@H](C)O)C(C)C)[C@@H](C)O` [Compound A79] (H-SCNTSTCATQRLANEK(C17 diacid)HKSSNNFGPILPPTKVGSETY-NH2; disulfide 2-7; N-terminus assumed), for the setting “male, Sprague-Dawley”, the Vd was 0.115 L/kg, the clearance was determined as 0.162 mL/min/kg and the half-life was 468 min.

`CC[C@H](C)[C@H](NC(=O)[C@@H]1CCCN1C(=O)CNC(=O)[C@H](Cc1ccccc1)NC(=O)[C@H](CC(N)=O)NC(=O)[C@H](CC(N)=O)NC(=O)[C@H](CO)NC(=O)[C@H](CO)NC(=O)[C@H](CCCCN)NC(=O)[C@H](Cc1c[nH]cn1)NC(=O)[C@H](CC(C)C)NC(=O)[C@H](CCCCNC(=O)CC[C@H](NC(=O)CC[C@H](NC(=O)CCCCCCCCCCCCCCC(=O)O)C(=O)O)C(=O)O)NC(=O)[C@H](CC(N)=O)NC(=O)[C@H](C)NC(=O)[C@H](CC(C)C)NC(=O)[C@H](CCCNC(=N)N)NC(=O)[C@H](CCC(N)=O)NC(=O)[C@@H](NC(=O)[C@H](C)NC(=O)[C@@H]1CSSC[C@H](NC(=O)[C@@H](N)CO)C(=O)N[C@@H](CC(N)=O)C(=O)N[C@@H]([C@@H](C)O)C(=O)N[C@@H](CO)C(=O)N[C@@H]([C@@H](C)O)C(=O)N1)[C@@H](C)O)C(=O)N[C@@H](CC(C)C)C(=O)N1CCC[C@H]1C(=O)N1CCC[C@H]1C(=O)N[C@H](C(=O)N[C@@H](CCCCN)C(=O)N[C@H](C(=O)NCC(=O)N[C@@H](CO)C(=O)N[C@@H](CCC(=O)O)C(=O)N[C@H](C(=O)N[C@@H](Cc1ccc(O)cc1)C(N)=O)[C@@H](C)O)C(C)C)[C@@H](C)O` [Compound A82] (H-SCNTSTCATQRLANK([γGlu-γGlu-C16 diacid])LHKSSNNFGPILPPTKVGSETY-NH2; disulfide 2-7): the volume of distribution (Vd) amounted to 0.152 L/kg, the clearance worked out at 0.667 mL/min/kg and the half-life is 190 min.

`CC[C@H](C)[C@H](NC(=O)[C@@H]1CCCN1C(=O)CNC(=O)[C@H](Cc1ccccc1)NC(=O)[C@H](CC(N)=O)NC(=O)[C@H](CC(N)=O)NC(=O)[C@H](CO)NC(=O)[C@H](CO)NC(=O)[C@H](CCCCN)NC(=O)[C@H](Cc1c[nH]cn1)NC(=O)[C@H](CC(C)C)NC(=O)[C@H](CCCCNC(=O)CCCCCCCCCCCCCCCCC(=O)O)NC(=O)[C@H](CC(N)=O)NC(=O)[C@H](C)NC(=O)[C@H](CC(C)C)NC(=O)[C@H](CCCNC(=N)N)NC(=O)[C@H](CCC(N)=O)NC(=O)[C@@H](NC(=O)[C@H](C)NC(=O)[C@@H]1CSSC[C@H](NC(=O)[C@@H](N)CO)C(=O)N[C@@H](CC(N)=O)C(=O)N[C@@H]([C@@H](C)O)C(=O)N[C@@H](CO)C(=O)N[C@@H]([C@@H](C)O)C(=O)N1)[C@@H](C)O)C(=O)N[C@@H](CC(C)C)C(=O)N1CCC[C@H]1C(=O)N1CCC[C@H]1C(=O)N[C@H](C(=O)N[C@@H](CCCCN)C(=O)N[C@H](C(=O)NCC(=O)N[C@@H](CO)C(=O)N[C@@H](CCC(=O)O)C(=O)N[C@H](C(=O)N[C@@H](Cc1ccc(O)cc1)C(N)=O)[C@@H](C)O)C(C)C)[C@@H](C)O` [Compound A83] (H-SCNTSTCATQRLANK(C18 diacid)LHKSSNNFGPILPPTKVGSETY-NH2; disulfide 2-7) showed a Vd of 0.123 L/kg, a clearance of 0.499 mL/min/kg and a half-life of 244 min.

`CC[C@H](C)[C@H](NC(=O)[C@@H]1CCCN1C(=O)CNC(=O)[C@H](Cc1ccccc1)NC(=O)[C@H](CC(N)=O)NC(=O)[C@H](CC(N)=O)NC(=O)[C@H](CO)NC(=O)[C@H](CO)NC(=O)[C@H](CCCCN)NC(=O)[C@H](Cc1c[nH]cn1)NC(=O)[C@H](CC(C)C)NC(=O)[C@H](CCCCNC(=O)CC[C@H](NC(=O)CC[C@H](NC(=O)COCCOCNC(=O)COCCOCNC(=O)CC[C@H](NC(=O)CCCCCCCCCCCCCCCCCCC(=O)O)C(=O)O)C(=O)O)C(=O)O)NC(=O)[C@H](Cc1ccc(O)cc1)NC(=O)[C@H](C)NC(=O)[C@H](CC(C)C)NC(=O)[C@H](CCCNC(=N)N)NC(=O)[C@H](CCC(N)=O)NC(=O)[C@@H](NC(=O)[C@H](C)NC(=O)[C@@H]1CSSC[C@H](NC(=O)[C@@H](N)CO)C(=O)N[C@@H](CC(N)=O)C(=O)N[C@@H]([C@@H](C)O)C(=O)N[C@@H](CO)C(=O)N[C@@H]([C@@H](C)O)C(=O)N1)[C@@H](C)O)C(=O)N[C@@H](CC(C)C)C(=O)N1CCC[C@H]1C(=O)N1CCC[C@H]1C(=O)N[C@H](C(=O)N[C@@H](CCCCN)C(=O)N[C@H](C(=O)NCC(=O)N[C@@H](CO)C(=O)N[C@@H](CCC(=O)O)C(=O)N[C@H](C(=O)N[C@@H](Cc1ccc(O)cc1)C(N)=O)[C@@H](C)O)C(C)C)[C@@H](C)O` [Compound A85] (H-SCNTSTCATQRLAYK([γGlu-γGlu-X3])LHKSSNNFGPILPPTKVGSETY-NH2; disulfide 2-7; N-terminus assumed): the distribution volume (Vd) worked out at 0.146 L/kg, the clearance amounted to 0.0496 mL/min/kg and the half-life was 2200 min.

For `CC[C@H](C)[C@H](NC(=O)[C@@H]1CCCN1C(=O)CNC(=O)[C@H](Cc1ccccc1)NC(=O)[C@H](CC(N)=O)NC(=O)[C@H](CC(N)=O)NC(=O)[C@H](CO)NC(=O)[C@H](CO)NC(=O)[C@H](CCCCN)NC(=O)[C@H](Cc1c[nH]cn1)NC(=O)[C@H](CCCCNC(=O)CCCCCCCCCCCCCCC(=O)O)NC(=O)[C@H](CCC(=O)O)NC(=O)[C@H](CC(N)=O)NC(=O)[C@H](C)NC(=O)[C@H](CC(C)C)NC(=O)[C@H](CCCNC(=N)N)NC(=O)[C@H](CCC(N)=O)NC(=O)[C@@H](NC(=O)[C@H](C)NC(=O)[C@@H]1CSSC[C@H](NC(=O)[C@@H](N)CO)C(=O)N[C@@H](CC(N)=O)C(=O)N[C@@H]([C@@H](C)O)C(=O)N[C@@H](CO)C(=O)N[C@@H]([C@@H](C)O)C(=O)N1)[C@@H](C)O)C(=O)N[C@@H](CC(C)C)C(=O)N1CCC[C@H]1C(=O)N1CCC[C@H]1C(=O)N[C@H](C(=O)N[C@@H](CCCCN)C(=O)N[C@H](C(=O)NCC(=O)N[C@@H](CO)C(=O)N[C@@H](CCC(=O)O)C(=O)N[C@H](C(=O)N[C@@H](Cc1ccc(O)cc1)C(N)=O)[C@@H](C)O)C(C)C)[C@@H](C)O` [Compound A86] (H-SCNTSTCATQRLANEK(C16 diacid)HKSSNNFGPILPPTKVGSETY-NH2; disulfide 2-7), the distribution volume (Vd) worked out at 0.0936 L/kg, the clearance came to 0.297 mL/min/kg and the half-life is 279 min.

Usually Vd stands for the apparent volume that relates the amount in the body to the concentration in plasma or blood. A high value points to wide distribution into tissue. The clearance is a measure of how efficiently the substance is removed, as volume per time. A high value points to efficient removal. As a reminder, the half-life is the time needed for the level to fall by half in the phase considered. A high value points to slow decline.
